Measured values reported in patent publication US6265611A, “Hydroxymandelic acid amides of phenolic amines” (Haarmann & Reimer GmbH, priority 1999, dated 2001).

What was measured:
[1] = Activity as antioxidants: accelerated autoxidation of lipids by air (Rancimat); settings: AOI = IP(with test solution)/IP(control sample); 0.05% test substance; soybean oil, 100° C., air 20 l/h
Description: The activity of the illustrative compounds 1 to 7 as antioxidants was compared with that of traditional antioxidants. The test system used was the accelerated autoxidation of lipids by air with or without antioxidant using the Rancimat apparatus (Rancimat is a registered trade mark of Metrohm AG, Herisau, Switzerland). The illustrative compounds, vitamin C, α-tocopherol, ferulic acid and butylated hydroxytoluene were dissolved in methanol or acetone, and 100 μl of each test solution were added to a 3 g prepared oil sample (soybean oil, purified over alumina type N). In a control sample, only solvent was added. A constant, dry stream of air (20 l/h) was blown through the oil sample, which contained the test solution and was heated to 100° C., and the volatile oxidation product (predominantly short-chain fatty acids such as formic or acetic acid) were collected in a trap containing water. The conductivity of this aqueous solution was continuously measured and recorded. […] The time to the increase is referred to as the induction period (IP). The following equation was used to calculate the antioxidative index (AOI): AOI=IP(with test solution) /IP(control sample)

[2] = DPPH test, activity as free-radical scavenger; type: biochemical; settings: EC = c(test compound)/c(DPPH); DPPH 100 μmol/l in methanol; absorption at 515 nm
Description: The activity of the compounds according to Examples 1 to 7 as free-radical scavengers was compared with the conventional free-radical scavenger. For this purpose, the DPPH (1,1-diphenyl-2-picryl-hydrazyl) test for the removal of […] was used.
DPPH was dissolved in methanol to a concentration of 100 μmol/l. A series of dilutions of the illustrative compound, vitamin C, α tocopherol, butylated hydroxytoluene and ferulic acid in methanol were prepared. Methanol was used as the control. 2500 μl of the DPPH solution were mixed with 500 μl of each test solution and the decrease in absorption at 515 nm was read until the decrease was less than 2% per hour. The activity of the test substances as free-radical scavengers was calculated using the following equation:
Activity as free-radical scavenger (%)=100-(absorption of the test
compounds)/ (absorption of the control)×100.

[3] = Solubility in aqueous media (water/DMSO 95:5); type: physicochemical
Description: The aqueous medium used by way, of example, was a mixture of 95 parts by weight of water and 5 parts by weight of DMSO. The compounds to be tested were weighed into a glass vessel, admixed with a defined amount of solvent and treated with ultrasound at room temperature for 5 min.

Row | EC50 (effective relative concentration at which 50% of the free radical DPPH had been removed) [2] | Solubility in a mixture of water (95 parts by weight) and DMSO (5 parts by weight) [3] | Structure (SMILES) | antioxidative index (AOI) with 0.05% of test substance [1]
1 | 0.250 mol/mol | – | Cc1c(C)c2c(c(C)c1O)CCC(C)(CCCC(C)CCCC(C)CCCC(C)C)O2 (stereo not drawn) [α-Tocopherol, reference compound] | 5.05
2 | 0.270 mol/mol | – | O=C1O[C@H]([C@@H](O)CO)C(O)=C1O [Vitamin C, ascorbic acid, reference compound] | 1.17
3 | 0.350 mol/mol | – | COc1cc(/C=C/C(=O)O)ccc1O [Ferulic acid, reference compound] | 1.79
4 | 0.069 mol/mol | 0.1-0.5 % by weight | O=C(NCc1ccc(O)c(O)c1)C(O)c1ccc(O)c(O)c1 (centres unmarked) [Example 6, N-(3,4-dihydroxybenzyl)-2-(3,4-dihydroxyphenyl)-2-hydroxyacetamide] | 17.5
5 | 0.085 mol/mol | 0.5-1 % by weight | O=C(NCc1cc(O)c(O)c(O)c1)C(O)c1ccc(O)c(O)c1 (centres unmarked) [Example 7, 2-(3,4-Dihydroxyphenyl)-2-hydroxy-N-(3,4,5-trihydroxybenzyl)acetamide] | 16.4
6 | 0.104 mol/mol | > 10 % by weight | O=C(NCCc1ccc(O)c(O)c1)C(O)c1ccc(O)c(O)c1 (centres unmarked) [Example 2, N-(3,4-dihydroxyphenethyl)-2-(3,4-dihydroxyphenyl)-2-hydroxyacetamide] | 16.9
7 | 0.195 mol/mol | > 10 % by weight | COc1cc(C(O)C(=O)NCc2ccc(O)c(O)c2)ccc1O (centres unmarked) [Example 3, N-(3,4-dihydroxybenzyl)-2-hydroxy-2-(4-hydroxy-3methoxyphenyl)acetamide] | 9.8
8 | 0.198 mol/mol | 0.5-1 % by weight | COc1cc(C(O)C(=O)NCc2cc(O)c(O)c(O)c2)ccc1O (centres unmarked) [Example 4, 2-Hydroxy-2-(4-hydroxy-3-methoxyphenyl)-N-(3,4,5-trihydroxybenzyl)acetamide] | 11.0
9 | 0.199 mol/mol | 0.05-0.1 % by weight | COc1cc(CNC(=O)C(O)c2ccc(O)c(O)c2)ccc1O (centres unmarked) [Example 5, 2-(3,4-Dihydroxyphenyl)-2-hydroxy-N-(4-hydroxy-3 methoxybenzyl)acetamide] | 12.6
10 | 0.240 mol/mol | – | Cc1cc(C(C)(C)C)c(O)c(C(C)(C)C)c1 [Butylated hydroxytoluene, reference compound] | 4.77
11 | 0.131 mol/mol | 5-10 % by weight | COc1cc(C(O)C(=O)NCCc2ccc(O)c(O)c2)ccc1O (centres unmarked) [Example 1, N-(3,4-dihydroxyphenethyl)-2-hydroxy-2-(4-hydroxy-3 methoxyphenyl)acetamide] | 13.0
